Test results as given in PubChem BioAssay (NCI).
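In this assay, cells in 96-well plates receive the compound at five concentrations for 48 hours. Endpoints are linearly interpolated between the surrounding concentrations. The concentration for full growth arrest is given as TGI.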

Assays:
Assay in all cases: NCI tumour cell line growth inhibition, 48 h
[1] = system: DLD-1 colon
[2] = system: SNB-78 CNS
[3] = system: KM20L2 colon
[4] = system: XF 498 CNS
[5] = system: DMS 273 small cell lung
[6] = system: LXFL 529 NSCLC
[7] = system: RXF-631 renal
[8] = system: HOP-18 NSCLC
[9] = system: P388 leukemia
[10] = system: SN12K1 renal
[11] = system: P388/ADR leukemia

In the case of `COc1cccc(-c2nccc3c(OCc4ccccc4)c(OC)c(OC)cc23)c1`, the TGI [1] is reported as > 100 µM, the TGI [2] is reported as > 100 µM and the TGI [3] is reported as > 100 µM. For the same compound, the TGI [4] was > 100 µM, the TGI [5] was > 100 µM and the TGI [6] was > 100 µM.

With `CCOC(=O)C(C)(C)Oc1ccc2c(-c3ccc(Cl)cc3)c(-c3ccc(Cl)cc3)c(=O)oc2c1` the TGI [1] was > 100 µM, the TGI [3] was > 100 µM and the TGI [7] was > 100 µM. The TGI [5] was > 100 µM and the TGI [6] was > 100 µM.

In the case of `CCCCn1c2ccccc2c2ccc3c(c21)C(=O)C=CC3=O`, the TGI [1] is reported as > 100 µM, the TGI [2] is reported as > 100 µM and the TGI [3] is reported as > 100 µM. For the same compound, the TGI [8] was > 100 µM, the TGI [5] was > 100 µM and the TGI [6] was > 100 µM.

With `CCN(CC)CCOC(=O)Cc1cccc2c(=O)cc(-c3ccccc3)oc12` the TGI [1] was > 195 µM, the TGI [2] was > 175 µM and the TGI [3] was > 214 µM. The TGI [4] was 82.6 µM, the TGI [8] was > 126 µM and the TGI [9] was > 625 µM. The TGI [10] was 127 µM, the TGI [5] was > 625 µM and the TGI [11] was > 625 µM.

For `O=C(CSc1nnc(-c2ccc(N=Cc3ccc(Cl)cc3)cc2)o1)Nc1ccc([N+](=O)[O-])cc1`, the TGI [2] was 84.4 µM, the TGI [3] was 73.5 µM and the TGI [4] was 47.1 µM. The TGI [8] was > 100 µM, the TGI [5] was 30.4 µM and the TGI [6] was 35.9 µM.

For `COC12CCC(C(C(=O)c3ccccc3)=C1C(=O)c1ccccc1)C(O)C2` (stereo not given), the TGI [1] was > 100 µM, the TGI [2] was > 100 µM and the TGI [4] was > 100 µM. The TGI [7] was > 100 µM, the TGI [5] was > 100 µM and the TGI [6] was > 100 µM.

`Cc1c(-c2nnc(-c3ccccc3)o2)c(=O)n(-c2ccccc2)n1C` was tested, and the TGI [1] was > 100 µM, the TGI [2] was > 100 µM and the TGI [3] was > 100 µM. For the same compound, the TGI [4] was > 100 µM, the TGI [8] was > 100 µM and the TGI [5] was > 100 µM. The TGI [6] was > 100 µM.

For `Cn1ccnc1CCc1ccc(Cl)c(Cl)c1`, the TGI [1] was > 100 µM, the TGI [2] was > 100 µM and the TGI [3] was > 100 µM. For the same compound, the TGI [8] was > 100 µM, the TGI [5] was > 100 µM and the TGI [6] was > 100 µM.

For `CCN(CC)CCOc1ccc(C(O)(Cc2ccc(OC)cc2)c2ccccc2)cc1` (stereo not given), the TGI [1] was 72.3 µM, the TGI [2] was 44.7 µM and the TGI [3] was 9.27 µM. For the same compound, the TGI [4] was 27.5 µM, the TGI [5] was 28.3 µM and the TGI [6] was 37.2 µM.

With `C[n+]1c2ccccc2c(/C=N\NS(=O)(=O)c2ccc(Cl)cc2)c2ccccc21` the TGI [1] was > 100 µM, the TGI [2] was > 100 µM and the TGI [3] was > 100 µM. The TGI [4] was > 100 µM and the TGI [5] was > 100 µM.

`O=[N+]([O-])c1ccc([N+]2=NC(c3ccccc3)=NN(c3ccccc3)C2)cc1` was tested, and the TGI [1] was > 100 µM, the TGI [2] was > 100 µM and the TGI [3] was > 100 µM. For the same compound, the TGI [4] was 58.9 µM, the TGI [8] was > 100 µM and the TGI [5] was > 100 µM. The TGI [6] was > 100 µM.

In the case of `CN(C)c1ccc(/C=C/C(=O)O)cc1`, the TGI [1] is reported as > 100 µM, the TGI [2] is reported as > 100 µM and the TGI [3] is reported as > 100 µM. For the same compound, the TGI [4] was > 100 µM, the TGI [8] was > 100 µM and the TGI [6] was > 100 µM.
